Test results: ChEMBL document CHEMBL1201862, “PubChem BioAssay data set” (2004)
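Exposure lasted 48 hours, with cells grown in 96-well plates and compounds tested at five concentrations. Here, GI50 denotes the concentration required for 50% inhibition of growth.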 Active and inactive are the calls of the source. Cut-off read from the data, not from the text of the source: active = GI50 up to about 1.1 µM and inactive = higher.

What was measured:
Assay in all cases: inhibition of tumour cell growth, NCI panel, 48 h
UACC-62 = test system: UACC-62
SK-MEL-28 = test system: SK-MEL-28
LOX IMVI = test system: LOX IMVI
TK-10 = test system: TK-10
DLD-1 = test system: DLD-1
UO-31 = test system: UO-31
EKVX = test system: EKVX
CCRF-CEM = test system: CCRF-CEM
CAKI-1 = test system: CAKI-1
HOP-18 = test system: HOP-18
SNB-19 = test system: SNB-19
A498 = test system: A498
HOP-92 = test system: HOP-92
SF-295 = test system: SF-295
KM12 = test system: KM12
MOLT-4 = test system: MOLT-4
HOP-62 = test system: HOP-62
A549 = test system: A549
SN12C = test system: SN12C
DMS-273 = test system: DMS-273
K562 = test system: K562
SK-OV-3 = test system: SK-OV-3
NCI-H226 = test system: NCI-H226
IGROV-1 = test system: IGROV-1
ACHN = test system: ACHN
SNB-75 = test system: SNB-75
SW-620 = test system: SW-620
Malme-3M = test system: Malme-3M
786-0 = test system: 786-0
M14 = test system: M14
RPMI-8226 = test system: RPMI-8226
XF498 = test system: XF498
LXFL 529 = test system: LXFL 529
OVCAR-5 = test system: OVCAR-5
OVCAR-4 = test system: OVCAR-4
SF-539 = test system: SF-539
SK-MEL-2 = test system: SK-MEL-2
HL-60 = test system: HL-60
SK-MEL-5 = test system: SK-MEL-5
DMS-114 = test system: DMS-114
M19-MEL = test system: M19-MEL
NCI-H23 = test system: NCI-H23
NCI-H522 = test system: NCI-H522
OVCAR-8 = test system: OVCAR-8
HCC 2998 = test system: HCC 2998
UACC-257 = test system: UACC-257
KM-20L2 = test system: KM-20L2
U-251 = test system: U-251
HCT-15 = test system: HCT-15
RXF 393 = test system: RXF 393
HT-29 = test system: HT-29
SF-268 = test system: SF-268
SNB-78 = test system: SNB-78
SR = test system: SR
NCI-H460 = test system: NCI-H460
HCT-116 = test system: HCT-116
OVCAR-3 = test system: OVCAR-3
COLO 205 = test system: COLO 205

In the case of `N=C(NC(=S)N1CCCCC1)N1CCCCC1`, the GI50 (UACC-62) is reported as > 100 µM (inactive), the GI50 (SK-MEL-28) is reported as > 100 µM (inactive) and the GI50 (LOX IMVI) is reported as > 100 µM (inactive). For the same molecule, the GI50 (TK-10) was > 100 µM (inactive), the GI50 (DLD-1) was > 100 µM (inactive) and the GI50 (UO-31) was > 100 µM (inactive). For the same molecule, the GI50 (EKVX) was > 100 µM (inactive), the GI50 (CCRF-CEM) was > 100 µM (inactive) and the GI50 (CAKI-1) was > 100 µM (inactive). The GI50 (HOP-18) was > 100 µM (inactive), the GI50 (SNB-19) was > 100 µM (inactive) and the GI50 (A498) was > 100 µM (inactive). For the same molecule, the GI50 (HOP-92) was > 100 µM (inactive), the GI50 (SF-295) was > 100 µM (inactive) and the GI50 (KM12) was > 100 µM (inactive). For the same molecule, the GI50 (MOLT-4) was > 100 µM (inactive), the GI50 (HOP-62) was > 100 µM (inactive) and the GI50 (A549) was > 100 µM (inactive). The GI50 (SN12C) was > 100 µM (inactive), the GI50 (DMS-273) was > 100 µM (inactive) and the GI50 (K562) was > 100 µM (inactive). For the same molecule, the GI50 (SK-OV-3) was > 100 µM (inactive), the GI50 (NCI-H226) was 5.71 µM (inactive) and the GI50 (IGROV-1) was > 100 µM (inactive). The GI50 (ACHN) was > 100 µM (inactive), the GI50 (SNB-75) was > 100 µM (inactive) and the GI50 (SW-620) was > 100 µM (inactive). The GI50 (Malme-3M) was > 100 µM (inactive), the GI50 (786-0) was > 100 µM (inactive) and the GI50 (M14) was > 100 µM (inactive). The GI50 (RPMI-8226) was > 100 µM (inactive), the GI50 (XF498) was > 100 µM (inactive) and the GI50 (LXFL 529) was > 100 µM (inactive). For the same molecule, the GI50 (OVCAR-5) was > 100 µM (inactive), the GI50 (OVCAR-4) was > 100 µM (inactive) and the GI50 (SF-539) was > 100 µM (inactive). The GI50 (SK-MEL-2) was > 100 µM (inactive), the GI50 (HL-60) was > 100 µM (inactive) and the GI50 (SK-MEL-5) was > 100 µM (inactive). The GI50 (DMS-114) was > 100 µM (inactive), the GI50 (M19-MEL) was > 100 µM (inactive) and the GI50 (NCI-H23) was > 100 µM (inactive). The GI50 (NCI-H522) was > 100 µM (inactive), the GI50 (OVCAR-8) was > 100 µM (inactive) and the GI50 (HCC 2998) was > 100 µM (inactive). For the same molecule, the GI50 (UACC-257) was > 100 µM (inactive), the GI50 (KM-20L2) was > 100 µM (inactive) and the GI50 (U-251) was > 100 µM (inactive). For the same molecule, the GI50 (HCT-15) was over 100 µM, the GI50 (RXF 393) was > 100 µM (inactive) and the GI50 (HT-29) was > 100 µM (inactive). The GI50 (SF-268) was > 100 µM (inactive), the GI50 (SNB-78) was > 100 µM (inactive) and the GI50 (SR) was > 100 µM (inactive). For the same molecule, the GI50 (NCI-H460) was > 100 µM (inactive) and the GI50 (HCT-116) was > 100 µM (inactive).
With `O=C(O)c1ccc(C2COc3ccc(Cl)cc3C2)cc1` (stereo not drawn) the GI50 (UACC-62) was > 100 µM (inactive), the GI50 (SK-MEL-28) was > 100 µM (inactive) and the GI50 (LOX IMVI) was > 100 µM (inactive). For the same molecule, the GI50 (TK-10) was > 100 µM (inactive), the GI50 (DLD-1) was > 100 µM (inactive) and the GI50 (UO-31) was > 100 µM (inactive). The GI50 (EKVX) was > 100 µM (inactive), the GI50 (CCRF-CEM) was > 100 µM (inactive) and the GI50 (CAKI-1) was > 100 µM (inactive). The GI50 (HOP-18) was > 100 µM (inactive), the GI50 (SNB-19) was > 100 µM (inactive) and the GI50 (A498) was > 100 µM (inactive). The GI50 (HOP-92) was > 100 µM (inactive), the GI50 (SF-295) was > 100 µM (inactive) and the GI50 (KM12) was > 100 µM (inactive). The GI50 (OVCAR-3) was > 100 µM (inactive), the GI50 (MOLT-4) was > 100 µM (inactive) and the GI50 (HOP-62) was > 100 µM (inactive). For the same molecule, the GI50 (A549) was > 100 µM (inactive), the GI50 (SN12C) was > 100 µM (inactive) and the GI50 (DMS-273) was > 100 µM (inactive). The GI50 (K562) was > 100 µM (inactive), the GI50 (SK-OV-3) was > 100 µM (inactive) and the GI50 (NCI-H226) was > 100 µM (inactive). The GI50 (IGROV-1) was > 100 µM (inactive), the GI50 (ACHN) was > 100 µM (inactive) and the GI50 (SNB-75) was 31.6 µM (inactive). For the same molecule, the GI50 (SW-620) was > 100 µM (inactive), the GI50 (Malme-3M) was > 100 µM (inactive) and the GI50 (786-0) was > 100 µM (inactive). The GI50 (M14) was > 100 µM (inactive), the GI50 (RPMI-8226) was > 100 µM (inactive) and the GI50 (XF498) was > 100 µM (inactive). For the same molecule, the GI50 (LXFL 529) was > 100 µM (inactive), the GI50 (OVCAR-5) was > 100 µM (inactive) and the GI50 (COLO 205) was > 100 µM (inactive). The GI50 (SF-539) was > 100 µM (inactive), the GI50 (SK-MEL-2) was > 100 µM (inactive) and the GI50 (HL-60) was > 100 µM (inactive). For the same molecule, the GI50 (SK-MEL-5) was > 100 µM (inactive), the GI50 (DMS-114) was > 100 µM (inactive) and the GI50 (M19-MEL) was > 100 µM (inactive). The GI50 (NCI-H23) was > 100 µM (inactive), the GI50 (NCI-H522) was > 100 µM (inactive) and the GI50 (OVCAR-8) was > 100 µM (inactive). For the same molecule, the GI50 (HCC 2998) was > 100 µM (inactive), the GI50 (UACC-257) was > 100 µM (inactive) and the GI50 (KM-20L2) was > 100 µM (inactive). For the same molecule, the GI50 (U-251) was > 100 µM (inactive), the GI50 (HCT-15) was over 100 µM and the GI50 (RXF 393) was > 100 µM (inactive). For the same molecule, the GI50 (HT-29) was > 100 µM (inactive), the GI50 (SF-268) was > 100 µM (inactive) and the GI50 (SNB-78) was > 100 µM (inactive). The GI50 (SR) was > 100 µM (inactive), the GI50 (NCI-H460) was > 100 µM (inactive) and the GI50 (HCT-116) was > 100 µM (inactive).
